# According to patent publication US10549006B2, “High-coverage, low odor malodor counteractant compounds and methods of use” (International Flavors & Fragrances Inc., priority 2014, dated 2020):
# Tests used:
# [1] = Percent Reduction of Malodor Intensity; details: 10% in water
# Description: (iii) Malodor counteracting effect of Compounds 1-6 (10% in water) was further evaluated and their respective “Percent Reduction of Malodor Intensity” was reported in the following: […]
# [2] = Malodor counteracting effect, scale of 0 to 5; details: 10% in water; scale of 0 to 5, 0=none, 1=minimal effect, 5=the highest possible effect
# Method: (ii) Malodor counteracting effect was evaluated using a scale of 0 to 5, where 0=none, 1=minimal effect and 5=the highest possible effect. High coverage of mold/mildew and sweat malodors by Compounds 1-6 (10% in water) was reported in the following: […]
smiles,measurement,setting,value
"CC(C)C(C)C(C)C(C)O (stereo not drawn) [Compound 5, 3,4,5-trimethyl-hexan-2-ol]","Percent Reduction of Malodor Intensity, Bathroom",[1],92%
same,"Percent Reduction of Malodor Intensity, Mold/Mildew",[1],80%
same,"Percent Reduction of Malodor Intensity, Smoke",[1],83%
same,"Percent Reduction of Malodor Intensity, Sweat",[1],85%
same,"Malodor counteracting effect, Mold/Mildew",[2],4.22
same,"Malodor counteracting effect, Sweat",[2],4.47
"CC(C)CC1OC(C)CCC1C(C)CC=O (stereo not drawn) [Compound 3, 3-[6-methyl-2-(2-methylpropyl)tetrahydro-2H-pyran-3-yl]butanal]","Percent Reduction of Malodor Intensity, Bathroom",[1],85%
same,"Percent Reduction of Malodor Intensity, Mold/Mildew",[1],81%
same,"Percent Reduction of Malodor Intensity, Smoke",[1],82%
same,"Percent Reduction of Malodor Intensity, Sweat",[1],86%
same,"Malodor counteracting effect, Mold/Mildew",[2],4.08
same,"Malodor counteracting effect, Sweat",[2],4.15
"COC1CCC(C(C)C)CC1 (stereo not drawn) [Compound 1, 1-methoxy-4-(methylethyl)-cyclohexane]","Percent Reduction of Malodor Intensity, Bathroom",[1],92%
same,"Percent Reduction of Malodor Intensity, Mold/Mildew",[1],88%
same,"Percent Reduction of Malodor Intensity, Smoke",[1],84%
same,"Percent Reduction of Malodor Intensity, Sweat",[1],83%
same,"Malodor counteracting effect, Mold/Mildew",[2],4.62
same,"Malodor counteracting effect, Sweat",[2],4.51
"CCCCCCOC1CCC(C)(C)O1 (stereo not drawn) [Compound 4, 5-hexyloxy-2,2-dimethyl-tetrahydro-furan]","Percent Reduction of Malodor Intensity, Bathroom",[1],83%
same,"Percent Reduction of Malodor Intensity, Mold/Mildew",[1],74%
same,"Percent Reduction of Malodor Intensity, Smoke",[1],76%
same,"Percent Reduction of Malodor Intensity, Sweat",[1],79%
same,"Malodor counteracting effect, Mold/Mildew",[2],4.27
same,"Malodor counteracting effect, Sweat",[2],4.53
"CC(=O)C(C)C(C)C(C)C (stereo not drawn) [Compound 6, 3,4,5-trimethyl-hexan-2-one]","Percent Reduction of Malodor Intensity, Bathroom",[1],87%
same,"Percent Reduction of Malodor Intensity, Mold/Mildew",[1],90%
same,"Percent Reduction of Malodor Intensity, Smoke",[1],84%
same,"Percent Reduction of Malodor Intensity, Sweat",[1],83%
same,"Malodor counteracting effect, Mold/Mildew",[2],4.04
same,"Malodor counteracting effect, Sweat",[2],4.30
"CCOC1C(C)CCCC1C (stereo not drawn) [Compound 2, 2-ethoxy-1,3-dimethyl-cyclohexane]","Percent Reduction of Malodor Intensity, Bathroom",[1],90%
same,"Percent Reduction of Malodor Intensity, Mold/Mildew",[1],79%
same,"Percent Reduction of Malodor Intensity, Smoke",[1],87%
same,"Percent Reduction of Malodor Intensity, Sweat",[1],90%
same,"Malodor counteracting effect, Mold/Mildew",[2],4.44
same,"Malodor counteracting effect, Sweat",[2],4.56
